Common to all, as to type: cell-based, human
Assay [1] relates to lymphocytes of the patient. In words: DLST (drug-induced lymphocyte stimulation test). On the procedure: (§1) The patient having the typical allergy-like symptom (skin lesion) and the atypical patient were tested by the three different methods, namely the DLST, which is widely used for clinical tests, the LMT, which is sometimes reported more accurate than the DLST, and the present method, and then the results were compared. […] The typical case was determined as negative though the patient clearly developed the skin symptom of the toxic epidermal necrolysis (TEN) according to the clinical presentation and the clinical course.

In assay [2] the test system is leukocytes of the patient. Kind of assay: LMT (leukocyte migration test). Particulars: positive with MI value > 150 and p < 0.05. How it is done:
as §1

Assay [3] relates to Peripheral blood Mononuclear cells (PBMC) of patient #3; leukocytes of a healthy volunteer as chemotactic cells. In words: Migration of healthy-volunteer leukocytes toward reactive solution of patient #3 mononuclear cells stimulated with suspected drug (Example 3). Particulars: for Velocity (judgment of migration velocity, % of control) / Distance (judgment of migration distance, % of control): patient #3 PBMC + serum, 72 h, suspected drugs at ½ of Cmax, PHA 1 μg/ml, relative to PHA-stimulated reactive solution; for chemotaxis or migration ability of the chemotactic cells (FIG. 5A): images recorded for 20 minutes. How it is done:
Leukocytes including granulocytes such as neutrophils were separated from heparinized blood of a healthy volunteer who had no allergic symptom by the density gradient centrifugation (Lymphocyte (Registered Trademark)—poly: CEDARLANE Labs. Ltd., Ontario, Canada) in accordance with a conventional method, and suspended in 5 ml of a culture medium (RPMI 1640: Sigma-Aldrich, MO, USA). After culturing the cells in a CO2 incubator at 37° C. for 1 hour the cells was adjusted to the concentration of about 5×10^5 cells/ml and used as chemotactic cells.
The chemotactic cells were injected into the lower well in the holder of EZ-TAXIScan™ (GE Healthcare, Tokyo) at about 5 μl/well, and were drawn to the end of the observation terrace by suction. Subsequently, the serum was injected into the upper well at 1.5 μl/well with a microsyringe to create a concentration gradient on the observation terrace, and images of the chemotactic cells on the observation terrace were sequentially recorded. The depth of the terrace was 4 μm.
The kinetics of the chemotactic cells migrating on the observation terrace was analyzed with software for processing images, ImageJ (NIH, MD, USA). Various parameters concerned with chemotaxis or migration ability of the cell toward the serum such as velocity, distance and direction of the migration were calculated. The statistical analysis was performed using GraphPad Prism (Registered Trademark) (GraphPad Software, CA, USA).
A drug solution was prepared by dissolving a drug in a Hank's balanced salt solution (HBSS: Sigma-Aldrich) if the drug was a solid preparation such as a soluble tablet or a powder. If the drug was poorly soluble, it was dissolved in Dimethyl-sulfoxide (DMSO: Sigma-Aldrich) and the solution was diluted with HBSS so that the final concentration of DMSO was 1% or less. A solution containing the drug solution and the serum of the patient in a ratio of 1:1 was used as a solution of the antigenic drug. The concentrations of the suspected drugs were set to ½ of the Cmax in principle. The concentration of phytohemagglutinin (PHA: Wako Pure Chemical Industries, Ltd., Osaka), a control antigen for stimulating or activating the lymphocytes, was set to 1 μg/ml.
Peripheral blood Mononuclear cells (PBMC) were separated from heparinized blood of the patient by density gradient centrifugation (Lymphoprep™: Axis-Shield PoC, Oslo, Norway) in a conventional manner, washed with HBSS, and then adjusted to the concentration of about 5×10^6 cells/ml with a culture medium for reaction (RPMI 1640 containing 10% horse serum (Invitrogen, CA, USA)).
A mixture of the suspension of the mononuclear cells and the solution of the antigenic drug in a ratio of 4:1 was reacted in a CO2 incubator at 37° C. for 72 hours, and the supernatant was used as a reactive solution stimulated with the antigen. PHA (a), gasmotin (b), dogmatyl (c), pariet (d) and DMSO (e) were used as the antigen.
The cell kinetics was measured in the substantially same manner as in Example 1 excepting that the reactive solution stimulated with the antigen was injected into the upper well in place of the serum.

The mark [4] stands for this setting: patient #3, vs other suspected drugs and solvent (c, d and e), p<0.05.

Here are results for 6 molecules from patent US10324079B2, “Method for rapid testing allergy” (priority 2013, dated 2019).

For `CCC(C)n1ncn(-c2ccc(N3CCN(c4ccc(OCC5COC(Cn6cncn6)(c6ccc(Cl)cc6Cl)O5)cc4)CC3)cc2)c1=O` (stereo not shown) [Itraconazole], the “DLST (SI value)” value in assay [1] (Patient B, test 1, positive with SI value > 180) is on record as 151; in assay [1] (Patient B, test 2, positive with SI value > 180), 90. In assay [2] (Patient B, test 2), the “LMT (MI value)” value was 135.5.
With `CO/N=C(\C(=O)N[C@@H]1C(=O)N2C(C(=O)O)=C(C[N+]3(C)CCCC3)CS[C@H]12)c1csc(N)n1` [Maxipime], the “DLST (SI value)” value in assay [1] (Patient A, positive with SI value > 180) turned out to be 112. Further, the “LMT (MI value)” value in assay [2] (Patient A) stood at 88.21.
As to `CCN1CCCC1CNC(=O)c1cc(S(N)(=O)=O)ccc1OC` (stereo not shown) [dogmatyl, Sulpride], the “Velocity (judgment of migration velocity, % of control)” value in assay [3] was “+/− (80~90)”.
On the same count and under the same terms, under `COCCCOc1ccnc(C[S+]([O-])c2nc3ccccc3[nH]2)c1C` (stereo not shown) [pariet, Rabeprazole sodium] stands “+ (90~120)”.
With Mosapride citrate hydrate [gasmotin], the “chemotaxis or migration ability of the chemotactic cells (FIG. 5A)” value in assay [3] (patient #3) is “rapid migration of the chemotactic cells in the positive direction of the density gradient”. Moreover, in assay [3] (setting [4]), the “migration distance (FIG. 5C)” value is “significantly larger” and the “migration velocity (FIG. 5B)” value was “significantly larger”. Moreover, in assay [3], the “Distance (judgment of migration distance, % of control)” value was “++ (>120)” and the “Velocity (judgment of migration velocity, % of control)” value is listed as “++ (>120)”.
Consider phytohemagglutinin [PHA], for which the “chemotaxis or migration ability of the chemotactic cells (FIG. 5A)” value in assay [3] (patient #3) is on record as “weaker than that induced with (b) but stronger than those induced with the other suspected drugs”. For the same molecule, the “Distance (judgment of migration distance, % of control)” value in assay [3] is “+ (90~120)”. Moreover, in assay [3], the “Velocity (judgment of migration velocity, % of control)” value was “+ (90~120)”. Moreover, the “DLST (SI value)” value in assay [1] (Patient A, class symbol) is “+ (Positive with *SI value > 180 (DLST))”; in assay [1] (Patient B, class symbol) it was “+ (Positive with *SI value > 180 (DLST))”. In addition, the “LMT (MI value)” value in assay [2] (Patient A) was 154.87; in assay [2] (Patient B), 283.9.
